Earlier results, collected in US20250235471A1, “OIL-IN-WATER EMULSION FOR INHALATION ADMINISTRATION COMPRISING CANNABIDIOL(CBD)” (Incannex Healthcare Limited, priority 2021, published 2025).

Compound: C=C(C)[C@@H]1CCC(C)=C[C@H]1c1c(O)cc(CCCCC)cc1O [CBD, cannabidiol]
- aqueous solubility: < 0.01 mg/mL
- estimated oil/water partition coefficient (Log P) (estimated): 6-7
